Data: patent US11447471B2, “α,β-unsaturated amide compound” (KYOWA KIRIN CO., LTD., priority 2017, dated 2022)

Experiments:
Format in all cases: cell-based
NCI-H226 cells = assay: Cell growth inhibitory effect on human mesothelioma cell line (cell counting kit 8, 6 days); settings: NCI-H226, 144 h
From the text: (§1) NCI-H226 cells, a human mesothelioma cell line (ATCC, CRL-5826), NCI-H322 cells, a human lung cancer cell line (the European Collection of Authenticated Cell Cultures, 95111734), OUTOKO cells, a human ovarian cancer cell line (JCRB cell bank, KRB1048) and […] were each subcultured by keeping the cell density under 80% in a RPMI1640 culture medium with 10% fetal bovine serum (FBS). NCI-H226 cells, NCI-H322 cells and SSP-25 cells were each suspended in the RPMI1640 culture medium mentioned above, and plated to a 96-well flat-bottom plate at 500 cells/well in each well, and incubated at 37° C. in an incubator with 5% CO2 for one day. After the incubation, the evaluation of cell growth inhibitory activity was started. OVTOKO cells were suspended in the RPMI1640 culture medium mentioned above, and plated to a 96-well flat-bottom plate at 250 cells/well in each well, and incubated it at 37° C. in an incubator with 5% CO2 for one day. After the incubation, the evaluation of the cell growth inhibitory activity was started. The next day, a test compound was serially diluted to 5 times of its final concentration in the RPM11640 culture medium mentioned above, and the diluted solution was added to each well. In this case, the final concentration of DMSO in each well was adjusted to 0.1%. After the test compound was added, cells were incubated at 37° C. in an incubator with 5% CO2 for 6 days. At the addition of the test compound and 6 days after the addition, the cell counting measurement was performed using a cell counting kit 8 (made by DOJINDO) according to a protocol equivalent to DOJINDO's recommendation. A reagent contained in the kit was added to each plate and color reaction was performed for 2 or 3 hours at 37° C. in an incubator with 5% CO2. After the reaction, an absorbance at wavelength of 450 nm was measured using a microplate reader. A growth inhibition rate was calculated according to the following formula, from which the concentration of a test compound at which cell growth was inhibited by 50% (GI50 value) was determined.

HuH28 cells = assay: Cell growth inhibitory effect on human liver cancer cell line (cell counting kit 8, 6 days); settings: 144 h; human liver cancer cell line HuH28, 6 days incubation
From the text: as §1

OVTOKO cells = assay: Cell growth inhibitory effect on human ovarian cancer cell line (cell counting kit 8, 6 days); settings: 144 h, 6 days incubation
Outline: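 Cells in RPMI1640 with 10% FBS plated at 500 cells/well (OVTOKO 250/well) and cultured one day at 37° C, 5% CO2. Serially diluted compound added (final DMSO 0.1%) for 6 days; viable cells measured at addition and day 6 with CCK-8, absorbance 450 nm. GI50 derived from growth inhibition rate.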

NCI-H322 cells = assay: Cell growth inhibitory effect on human lung cancer cell line (cell counting kit 8, 6 days); settings: 144 h; human lung cancer cell line NCI-H322, 6 days incubation
From the text: as §1

| SMILES | GI50 (NCI-H226 cells) [nM] | GI50 (HuH28 cells) [nM] | GI50 (OVTOKO cells) [nM] | GI50 (NCI-H322 cells) [nM] |
| --- | --- | --- | --- | --- |
| C=CC(=O)N[C@@H]1CC[C@H](Oc2ccc(C(F)(F)F)cc2)c2nc(OC)ccc21 (relative stereo) [Compound 179, cis-N-[2-Methoxy-8-{4-(trifluoromethyl)phenoxy}-5,6,7,8-tetrahydroquinolin-5-yl]acrylamide] | < 100 | < 3000 | ≤ 3000 | < 1000 |
| C=CC(=O)N[C@@H]1CC[C@H](Oc2ccc(C(F)(F)F)cc2)c2nc(C3CC3)ccc21 (relative stereo) [Compound 185, cis-N-[2-Cyclopropyl-8-{4-(trifluoromethyl)phenoxy}-5,6,7,8-tetrahydroquinolin-5-yl]acrylamide] | < 100 | < 3000 | ≤ 3000 | < 1000 |
| C=CC(=O)N[C@@H]1CC[C@H](Oc2ccc(C(F)(F)F)c(F)c2)c2nc(Cl)ccc21 (relative stereo) [Compound 187, cis-N-[2-Chloro-8-{3-fluoro-4-(trifluoromethyl)phenoxy}-5,6,7,8-tetrahydroquinolin-5-yl]acrylamide] | < 100 | < 3000 | ≤ 3000 | < 1000 |
| C=CC(=O)N[C@@H]1CC[C@H](Oc2ccc(C(F)(F)F)cn2)c2nc(Cl)ccc21 (relative stereo) [Compound 189, cis-N-(2-Chloro-8-[{5-(trifluoromethyl)pyridin-2-yl}oxy]-5,6,7,8-tetrahydroquinolin-5-yl)acrylamide] | < 100 | < 3000 | ≤ 3000 | < 1000 |
| C=CC(=O)NC1CC[C@H](Oc2cccc(Cl)c2)c2ncccc21 (stereo in doubt) [Compound 68, cis-N-{8-(3-Chlorophenoxy)-5,6,7,8-tetrahydroquinolin-5-yl}acrylamide] | < 100 | < 3000 | ≤ 3000 | < 1000 |
| C=CC(=O)NC1CCOc2c1ccc(Oc1ccc(C(F)(F)F)nc1)c2OC (stereo not drawn) [Compound 163, N-(8-Methoxy-7-[{6-(trifluoromethyl)pyridin-3-yl}oxy]chroman-4-yl)acrylamide] | < 100 | < 3000 | ≤ 3000 | < 1000 |
| C=CC(=O)Nc1cncc(OCC2CCC(F)(F)CC2)c1 [Compound 192] | 100 to 1000 | < 3000 | ≤ 3000 | < 1000 |
| C=CC(=O)NCc1ccc(Oc2ccc(C(F)(F)F)cc2)c2nc(C)oc12 [Compound 243, N-([2-Methyl-4-{4-(trifluoromethyl)phenoxy}benzo[d]oxazol-7-yl]methyl) acrylamide] | < 100 | < 3000 | ≤ 3000 | < 1000 |
| C=CC(=O)NCc1ccc(Oc2ccc(C(F)(F)F)cc2)c2nc(CC)oc12 [Compound 244, N-([2-Ethyl-4-{4-(trifluoromethyl)phenoxy}benzo[d]oxazol-7-yl]methyl)acrylamide] | < 100 | < 3000 | ≤ 3000 | < 1000 |
| C=CC(=O)NCc1ccc(Oc2ccc(C(F)(F)F)cc2)c2nc(-c3ccccc3)oc12 [Compound 246, N-([2-Phenyl-4-{4-(trifluoromethyl)phenoxy}benzo[d]oxazol-7-yl]methyl) acrylamide] | 100 to 1000 | < 3000 |  | < 1000 |
| C=CC(=O)NCc1ccc(Oc2ccc(C(F)(F)F)cc2)c2ncoc12 [Compound 247, N-([4-{4-(Trifluoromethyl)phenoxy}benzo[d]oxazol-7-yl]methyl)acrylamide] | < 100 | < 3000 | ≤ 3000 | < 1000 |
| C=CC(=O)NCc1ccc(Oc2ccc(C(F)(F)F)nc2)c2nc(C)oc12 [Compound 249, N-{(2-Methyl-4-[{6-(trifluoromethyl)pyridin-3-yl}oxy]benzo[d]oxazol-7-yl)methyl}acrylamide] | < 100 | < 3000 | ≤ 3000 | < 1000 |
| C=CC(=O)NCc1ccc(Oc2ccc(C(F)(F)F)cn2)c2nc(C)oc12 [Compound 250, N-{(2-Methyl-4-[{5-(trifluoromethyl)pyridin-2-yl}oxy]benzo[d]oxazol-7-yl)methyl}acrylamide] | < 100 | < 3000 | ≤ 3000 | < 1000 |
| C=CC(=O)NCc1ccc(Oc2ccc(C(F)(F)F)nc2)c2nc(CC)oc12 [Compound 251, N-{(2-Ethyl-4-[{6-(trifluoromethyl)pyridin-3-yl}oxy]benzo[d]oxazol-7-yl)methyl}acrylamide] | < 100 | < 3000 |  | < 1000 |
| C=CC(=O)NCc1ccc(Oc2ccc(C(F)(F)F)cn2)c2nc(CC)oc12 [Compound 252, N-{(2-Ethyl-4-[{5-(trifluoromethyl)pyridin-2-yl}oxy]benzo[d]oxazol-7-yl)methyl}acrylamide] | < 100 | < 3000 |  | < 1000 |
| C=CC(=O)NCc1ccc(Oc2ccc(C(F)(F)F)cc2)c2oc(C)nc12 [Compound 253, N-([2-Methyl-7-{4-(trifluoromethyl)phenoxy}benzo[d]oxazol-4-yl]methyl)acrylamide] | < 100 | < 3000 |  | < 1000 |
| C=CC(=O)NCc1ccc(Oc2ccc(C(F)(F)F)cc2)c2nc(C)sc12 [Compound 256, N-([2-Methyl-4-{4-(trifluoromethyl)phenoxy}benzo[d]thiazol-7-yl]methyl)acrylamide] | < 100 | < 3000 | ≤ 3000 | < 1000 |
| C=CC(=O)NCc1ccc(Oc2ccc(C(F)(F)F)cc2)c2sc(C)nc12 [Compound 257, N-([2-Methyl-7-{4-(trifluoromethyl)phenoxy}benzo[d]thiazol-4-yl]methyl)acrylamide] | < 100 | < 3000 |  | < 1000 |
| C=CC(=O)NCc1ccc(C(O)c2ccc(C(F)(F)F)cc2)c2nc(C)oc12 (stereo not drawn) [Compound 268, N-{(4-[Hydroxy{4-(trifluoromethyl)phenyl}methyl]-2-methylbenzo[d]oxazol-7-yl)methyl}acrylamide] | 100 to 1000 | < 3000 | ≤ 3000 | < 1000 |
| C=CC(=O)NCc1ccc(N(C)c2ccc(C(F)(F)F)cc2)c2nc(C)oc12 [Compound 269, N-{(2-Methyl-4-[methyl{4-(trifluoromethyl)phenyl}amino]benzo[d]oxazol-7-yl)methyl}acrylamide] | 100 to 1000 | < 3000 | ≤ 3000 | < 1000 |
| C=CC(=O)NCc1ccc(Nc2ccc(C(F)(F)F)cc2)c2nc(C)oc12 [Compound 270, N-{(2-Methyl-4-[{4-(trifluoromethyl)phenyl}amino]benzo[d]oxazol-7-yl)methyl}acrylamide] | < 100 | < 3000 | ≤ 3000 | < 1000 |
| C=CC(=O)NCc1ccc(Sc2ccc(C(F)(F)F)cc2)c2nc(C)oc12 [Compound 272, N-{(2-Methyl-4-[{4-(trifluoromethyl)phenyl}thio]benzo[d]oxazol-7-yl)methyl}acrylamide] | < 100 | < 3000 | ≤ 3000 | < 1000 |
| C=CC(=O)NCc1ccc(Oc2ccc(N(C)C)cc2)c2nc(C)oc12 [Compound 275, N-([4-{4-(Dimethylamino)phenoxy}-2-methylbenzo[d]oxazol-7-yl]methyl)acrylamide] | 100 to 1000 | < 3000 | ≤ 3000 | < 1000 |
| C=CC(=O)NCc1ccc(Oc2ccc(C(F)(F)F)c(F)c2)c2nc(C)oc12 [Compound 277, N-([4-{3-Fluoro-4-(trifluoromethyl)phenoxy}-2-methylbenzo[d]oxazol-7-yl]methyl)acrylamide] | < 100 | < 3000 | ≤ 3000 | < 1000 |
| C=CC(=O)NCc1ccc(Oc2ccc(C#N)cc2)c2nc(C)oc12 [Compound 278, N-[{4-(4-Cyanophenoxy]-2-methylbenzo[d]oxazol-7-yl}methyl)acrylamide] | 100 to 1000 | < 3000 | ≤ 3000 | < 1000 |
| C=CC(=O)NCc1ccc(Oc2cccc(C(F)(F)F)c2)c2nc(C)oc12 [Compound 279, N-([2-Methyl-4-{3-(trifluoromethyl)phenoxy}benzo[d]oxazol-7-yl]methyl) acrylamide] | < 100 | < 3000 | ≤ 3000 | < 1000 |
